Patent US20240238254A1, “PHARMACOLOGICAL INTERVENTION OF THE ARACHIDONIC ACID PATHWAY TO CURE AMYOTROPHIC LATERAL SCLEROSIS” (The Johns Hopkins University, priority 2021, published 2024)

Tested on: SOD1^G93A mice
Assay: Mouse survival and efficacy evaluation (Exp 1: onset, survival, behavioral tests)
Format: in vivo
From the text: Hb9::GFP and ISL1::GFP mice were described previously^107,108. All experiments used protocols approved by the Animal Care and Ethics Committees of the Gwangju Institute of Science and Technology (GIST) in accordance with the National Institutes of Health Guide for the Care and Use of Laboratory Animals. For efficacy assessment of the caffeic acid, B6.Cg-Tg(SOD1^G93A)1Gur/J mice (Jackson Laboratory, Bar Harbor, ME) was used after in vitro fertilization (Macrogen, Seoul, Korea) and all the protocol was approved by the Institutional Animal Care and Use Committees of Dong-A University.
Caffeic acid (30) mg/kg) dissolved in PBS containing 10% ethanol or vehicle (PBS containing 10% ethanol) were orally administered 5 days/week from 60 days to 120 days of age. Three independent experiments were performed to evaluate the efficacy of caffeic acid. A total of 24 mice in each group (female=12, male=12) were used for evaluation of survival and behavioral assessments (Exp 1), and the same number of mice were used for histologic analyses (Exps 2 and 3). In the Exp 1, mice were monitored for neurological disease progression according to guidelines for preclinical animal research in ALS/MND (Ludolph AC et al, 2010). The neurological score was followed as Score 0.5 as disease onset (first signs of tremor and hind-limb splay defects) and the end stage (Score 4) was determined as loss of righting reflex within 30s. Neurological scoring was monitored daily and mice at the end stage were euthanized. Kaplan-Meier curves was used to analyze age of onset and survival using Graphpad Prism7 (GraphPad Software, San Diego, CA). Motor coordination and muscle integrity were assessed weekly using a Rotarod apparatus and grip strength device (Panlab Harvard Apparatus, Barcelona, Spain). Tissue analyses were performed in the Exp 2 (n=14 for each group) and Exp 3 (n=10 for each group). They were anesthetized with […] isofluran at 16 wks (Exp 2) and 20 wks (Exp 3) of age then perfused with 4% paraformaldehyde in PBS. L4-L5 segments of spinal cord were serially cut with the cryostat into 20 μm sections then stained with 0.1% (w/v) cresyl violet stain solution. Motor neurons with larger than 25 μm of dimeter in Lamina IX of the ventral horn were counted using Image J software (National Institutes of Health, Bethesda, USA) program, and 10) sections per sample (n=10 for each group) were averaged. Activated astrocytes and microglia in the spinal cord were detected using anti-GFAP Ab and rabbit anti-Iba1 Ab (Cell Signaling Technology, Beverly, MA) for 10 sections per sample (n=10 for each group). The integrated density of fraction area in the ventral horn were measured using Image J software for quantification of activated astrocytes and microglia. Neuromuscular junction was analyzed in gastrocnemius muscle (30 μm) with anti-a-bungarotoxin Ab to label AChR and anti-neurofilament H/synapsin Ab (Cell Signaling Technology) to label axon terminals. The innervated pretzel structures merged with two fluorescence were counted.

For `O=C(O)/C=C/c1ccc(O)c(O)c1` [caffeic acid, 3,4-dihydroxy benenearcrylic acid], the grip strength (30 mg/kg orally) was “attenuated disease progression”, the “disease onset (tremor and hind-limb splay defects)” value (30 mg/kg orally 5 days/week from 60 to 120 days of age, control 109.8±7.7 days) was 118.8 ± 4.3 days and the “survival (loss of righting reflex within 30s)” value (30 mg/kg orally 5 days/week from 60 to 120 days of age, control 162.8±12.3 days) was 171.0 ± 11.4 days. The body weight (30 mg/kg orally, monitored weekly) was “attenuated disease progression” and the rotarod performance (30 mg/kg orally, reduction begins from 15 weeks of age) was “significant slowdown of the reduction”.
